Experimental data as given in patent publication US6465457B1 (priority 1991, dated 2002).

Experiments:
Format in all cases: in vivo
[1] = system: Venturia inaequalis (Apples); assay: Foliar fungal disease test on plants: Venturia inaequalis (Apples); details: 100 ppm a.i. foliar spray or root drench (approx. 40 ppm in dry soil), one or two days before inoculation
Experimental: (§1) The compounds were tested against a variety of foliar fungal diseases of plants. The technique employed was as follows.
(§2) The plants were grown in John Innes Potting Compost (No 1 or 2) in 4 cm diameter minipots. The test compounds were formulated either by bead milling with aqueous DISPERSOL T or as a solution in acetone or acetone/ethanol which was diluted to the required concentration immediately before use. […] The sprays were applied to maximum retention and the root drenches to a final concentration equivalent to approximately 40 ppm a.i. in dry soil. TWEEN 20 was added to give a final concentration of 0.05% when the sprays were applied to cereals.
(§3) For most of the tests the compounds were applied to the soil (roots) or to the foliage (by spraying) one or two days before the plant was inoculated with the disease. An exception was the test on Erysiphe graminis in which the plants were inoculated 24 hours before treatment. Foliar pathogens were applied by spray as zoosporangial suspensions onto the leaves of test plants. After inoculation, the plants were put into an appropriate environment to allow infection to proceed and then incubated until the disease was ready for assessment. The period between inoculation and assessment varied from four to fourteen days according to the disease and environment.
(§4) The disease level present (i.e. leaf area covered by actively sporulating disease) on each of the treated plants was recorded using the following assessment scale:
(§5) Each assessment was then expressed as a percentage of the level of disease present on the untreated control plants. This calculated value is referred to as a POCO (Percentage of Control) value. An example of a typical calculation is as follows:
(§6) Disease level on untreated control=90
(§7) Disese level on treated plant=30 [formula]
(§8) This calculated POCO value is then rounded to the nearest of the values in the 9-point assessment scale shown above. In this particular example, the POCO value would be rounded to 30. If the calculated POCO falls exactly mid-way between two of the points, it is rounded to the lower of the two values.

[2] = system: Erysiphe graminis tritici (Wheat); assay: Foliar fungal disease test on plants: Erysiphe graminis tritici (Wheat); details: 100 ppm a.i. foliar spray or root drench (approx. 40 ppm in dry soil); plants inoculated 24 hours before treatment
Experimental: as §1, §2, §3, §4, §5, §6, §7, §8

[3] = system: Plasmopara viticola (Vines); assay: Foliar fungal disease test on plants: Plasmopara viticola (Vines); details: 100 ppm a.i. foliar spray or root drench (approx. 40 ppm in dry soil), one or two days before inoculation
Experimental: as §1, §2, §3, §4, §5, §6, §7, §8

[4] = system: Pyricularia oryzae (Rice); details: 100 ppm a.i. foliar spray or root drench (approx. 40 ppm in dry soil), one or two days before inoculation
[5] = system: Thanatephorus cucumeries (Rice); assay: Foliar fungal disease test on plants: Thanatephorus cucumeries (Rice); details: 100 ppm a.i. foliar spray or root drench (approx. 40 ppm in dry soil), one or two days before inoculation
Experimental: as §1, §2, §3, §4, §5, §6, §7, §8

[6] = system: Phytophthora infestans (Tomatoes); details: 100 ppm a.i. foliar spray or root drench (approx. 40 ppm in dry soil), one or two days before inoculation
Septoria nodorum (Wheat) = assay: Foliar fungal disease test on plants: Septoria nodorum (Wheat); details: 100 ppm a.i. foliar spray or root drench (approx. 40 ppm in dry soil), one or two days before inoculation
Experimental: as §1, §2, §3, §4, §5, §6, §7, §8

Compound	POCO (Percentage of Control) disease level, Venturia inaequalis (Apples) [1]	POCO (Percentage of Control) disease level, Erysiphe graminis tritici (Wheat) [2]	POCO (Percentage of Control) disease level, Plasmopara viticola (Vines) [3]	POCO (Percentage of Control) disease level, Pyricularia oryzae (Rice) [4]	POCO (Percentage of Control) disease level, Thanatephorus cucumeries (Rice) [5]	POCO (Percentage of Control) disease level, Phytophthora infestans (Tomatoes) [6]	POCO (Percentage of Control) disease level, Septoria nodorum (Wheat) (Septoria nodorum (Wheat))
COC=C(C(=O)OC)c1ccccc1COC(=O)Nc1ccc(F)cc1F [24 (1)]	0 (0 = 0% disease present)	0 (0 = 0% disease present)	0 (0 = 0% disease present)	90 (90 and 94 = 60.1-100% disease present)	60 (60 = 30.1-60% disease present)	20 (20 and 24 = 10.1-20% disease present)	60 (60 = 30.1-60% disease present)
CCN(C(=O)OCc1ccccc1C(=COC)C(=O)OC)c1ccccc1 [5 (3)]	0 (0 = 0% disease present)	0 (0 = 0% disease present)	0 (0 = 0% disease present)	0 (0 = 0% disease present)	5 (5 = 3.1-5% disease present)	5 (5 = 3.1-5% disease present)	0 (0 = 0% disease present)
COC=C(C(=O)OC)c1ccccc1COC(=O)Nc1ccc(OC)nc1 [32 (1)]	60 (60 = 30.1-60% disease present)	20 (20 and 24 = 10.1-20% disease present)	0 (0 = 0% disease present)	90 (90 and 94 = 60.1-100% disease present)	90 (90 and 94 = 60.1-100% disease present)	30 (30 = 20.1-30% disease present)	30 (30 = 20.1-30% disease present)
COC=C(C(=O)OC)c1ccccc1OC(=O)Nc1ccccc1 [5 (17)]	1 (1 = 0.1-1% disease present)	60 (60 = 30.1-60% disease present)	0 (0 = 0% disease present)	5 (5 = 3.1-5% disease present)	90 (90 and 94 = 60.1-100% disease present)	60 (60 = 30.1-60% disease present)	60 (60 = 30.1-60% disease present)
CCN(C(=O)OCc1ccccc1C(=COC)C(=O)OC)c1ccccc1F [3 (3)]	0 (0 = 0% disease present)	0 (0 = 0% disease present)	0 (0 = 0% disease present)	0 (0 = 0% disease present)	0 (0 = 0% disease present)	0 (0 = 0% disease present)	0 (0 = 0% disease present)
CCN(C(=O)OCc1ccccc1C(=COC)C(=O)OC)c1cccc([N+](=O)[O-])c1 [6 (3)]	0 (0 = 0% disease present)	0 (0 = 0% disease present)	0 (0 = 0% disease present)	0 (0 = 0% disease present)	90 (90 and 94 = 60.1-100% disease present)	10 (10 = 5.1-10% disease present)	0 (0 = 0% disease present)
COC=C(C(=O)OC)c1ccccc1COC(=O)N(C)c1ccc(F)cc1F [24 (2)]	0 (0 = 0% disease present)	0 (0 = 0% disease present)	0 (0 = 0% disease present)	0 (0 = 0% disease present)	0 (0 = 0% disease present)	0 (0 = 0% disease present)	0 (0 = 0% disease present)
COC=C(C(=O)OC)c1ccccc1COC(=O)N(C)c1cccc([N+](=O)[O-])c1 [6 (2)]	0 (0 = 0% disease present)	0 (0 = 0% disease present)	0 (0 = 0% disease present)	0 (0 = 0% disease present)	30 (30 = 20.1-30% disease present)	10 (10 = 5.1-10% disease present)	0 (0 = 0% disease present)
COC=C(C(=O)OC)c1ccccc1COC(=O)Nc1ccccc1C(=O)OC [33 (1)]	0 (0 = 0% disease present)	60 (60 = 30.1-60% disease present)	90 (90 and 94 = 60.1-100% disease present)	90 (90 and 94 = 60.1-100% disease present)	90 (90 and 94 = 60.1-100% disease present)	90 (90 and 94 = 60.1-100% disease present)	90 (90 and 94 = 60.1-100% disease present)
COC=C(C(=O)OC)c1ccccc1COC(=O)N(C)c1ccccc1F [3 (2)]	0 (0 = 0% disease present)	0 (0 = 0% disease present)	0 (0 = 0% disease present)	0 (0 = 0% disease present)	0 (0 = 0% disease present)	0 (0 = 0% disease present)	0 (0 = 0% disease present)
